≈ marks a conversion by molar mass, not a printed value.
How the values were obtained:
[1] = Toxicity index, ratio of ED50 for human KB cells to ED50 for […] Plasmodium falciparum 3D7; format: cell-based; conditions: KB cells versus Plasmodium falciparum 3D7, read-out: Ratio ED50
[2] = Cytotoxicity against human KB cells; format: cell-based; conditions: read-out: ED50 (the source's name)
Plasmodium falciparum = assay: Antimalarial activity against […] Plasmodium falciparum 3D7; format: functional, organism-based; conditions: for EC50: read-out: ED50 (the source's name)

Row | Structure (SMILES) | selectivity ratio [1] | CC50 [2] [µg/mL] | EC50 (Plasmodium falciparum) [µg/mL] | IC50 (Plasmodium falciparum) [µg/mL]
1 | CNC[C@@H](CC1CCCCC1)NC[C@@H](Cc1ccc2ccccc2c1)NCC(C)c1ccc(CC(C)C)cc1 (stereo not given in full) | 24.1 | 7.01 (≈ 13.3 µM) | 0.29 (≈ 0.549 µM) | –
2 | CNC[C@@H](CC1CCCCC1)NC[C@@H](Cc1ccc2ccccc2c1)NCCc1ccc(Cl)c(Cl)c1 | 19.2 | 4.23 (≈ 8.03 µM) | 0.22 (≈ 0.418 µM) | –
3 | CNC[C@H](Cc1ccc2ccccc2c1)NC[C@H](Cc1ccc2ccccc2c1)NCC(C)c1ccc(CC(C)C)cc1 (stereo not given in full) | 11.6 | 2.09 (≈ 3.65 µM) | 0.18 (≈ 0.315 µM) | –
4 | CNC[C@@H](CC1CCCCC1)NC[C@H](Cc1ccc2ccccc2c1)NCC1(c2ccccc2)CC1 | 15.7 | 1.71 (≈ 3.53 µM) | 0.11 (≈ 0.227 µM) | –
5 | CNC[C@H](Cc1ccc2ccccc2c1)NC[C@@H](Cc1ccc2ccccc2c1)NCCc1ccc(Cl)c(Cl)c1 | 23 | 5.53 (≈ 9.69 µM) | 0.24 (≈ 0.421 µM) | –
6 | CNC[C@@H](Cc1ccccc1)NC[C@H](Cc1ccc2ccccc2c1)NCC1(c2ccccc2)CC1 | 2.36 | 0.52 (≈ 1.09 µM) | 0.22 (≈ 0.461 µM) | –
7 | CNC[C@H](Cc1ccc2ccccc2c1)NC[C@@H](Cc1ccc2ccccc2c1)NCC(C)c1ccc(CC(C)C)cc1 (stereo not given in full) | 13 | 1.71 (≈ 2.99 µM) | 0.13 (≈ 0.227 µM) | –
8 | CNC[C@@H](CC1CCCCC1)NC[C@H](Cc1ccc2ccccc2c1)NCCC1CCCCC1 | – | 0.11 (≈ 0.237 µM) | 0.11 (≈ 0.237 µM) | –
9 | CNC[C@@H](Cc1ccc2ccccc2c1)NC[C@H](Cc1ccc2ccccc2c1)NCC1(c2ccccc2)CC1 | 4.93 | 1.43 (≈ 2.71 µM) | 0.29 (≈ 0.549 µM) | –
10 | CNC[C@H](Cc1ccc2ccccc2c1)NC[C@H](Cc1ccc2ccccc2c1)NCCC1CCCCC1 | 88.5 | 1.77 (≈ 3.49 µM) | 0.02 (≈ 0.0394 µM) | –
11 | CNC[C@@H](CC1CCCCC1)NC[C@H](Cc1ccc2ccccc2c1)NCC1CCC(C)CC1 (stereo not given in full) | 69 | 6.9 (≈ 14.9 µM) | 0.1 (≈ 0.216 µM) | –
12 | CNC[C@H](Cc1ccc2ccccc2c1)NC[C@@H](Cc1ccc2ccccc2c1)NCC1(c2ccccc2)CC1 | 32 | 1.6 (≈ 3.03 µM) | 0.05 (≈ 0.0947 µM) | –
13 | CNC[C@@H](Cc1ccccc1)NC[C@@H](Cc1ccc2ccccc2c1)NCC1(c2ccccc2)CC1 | 5.46 | 1.53 (≈ 3.2 µM) | 0.28 (≈ 0.586 µM) | –
14 | CNC[C@@H](Cc1ccccc1)NC[C@@H](Cc1ccc2ccccc2c1)NCC1CCC(C)CC1 (stereo not given in full) | 8.23 | 1.73 (≈ 3.78 µM) | 0.22 (≈ 0.481 µM) | –
15 | C[C@H]1[C@H](OC(=O)CCC(=O)O)O[C@@H]2O[C@@]3(C)CC[C@H]4[C@H](C)CC[C@@H]1[C@@]24OO3 [ARTESUNATE] | – | – | – | 0.002 (≈ 0.0052 µM)
16 | CNC[C@H](Cc1ccc2ccccc2c1)NC[C@@H](Cc1ccc2ccccc2c1)NCCC1CCCCC1 | 17.7 | 1.6 (≈ 3.15 µM) | 0.09 (≈ 0.177 µM) | –
17 | CNC[C@H](Cc1ccc2ccccc2c1)NC[C@H](Cc1ccc2ccccc2c1)NCC1(c2ccccc2)CC1 | 43.5 | 2.18 (≈ 4.13 µM) | 0.05 (≈ 0.0947 µM) | –
18 | CNC[C@@H](CC1CCCCC1)NC[C@@H](Cc1ccc2ccccc2c1)NCCC1CCCCC1 | 11.3 | 1.59 (≈ 3.43 µM) | 0.14 (≈ 0.302 µM) | –
19 | CCOc1ccc(CCN[C@H](CN[C@@H](CNC)CC2CCCCC2)Cc2ccc3ccccc3c2)cc1 | 19.3 | 3.1 (≈ 6.18 µM) | 0.16 (≈ 0.319 µM) | –
20 | CNC[C@H](Cc1ccc2ccccc2c1)NC[C@@H](Cc1ccc2ccccc2c1)NCC1CCC(C)CC1 (stereo not given in full) | 20.3 | 2.03 (≈ 4 µM) | 0.1 (≈ 0.197 µM) | –
21 | CCOc1ccc(CCN[C@H](CN[C@H](CNC)Cc2ccc3ccccc3c2)Cc2ccc3ccccc3c2)cc1 | 26 | 3.23 (≈ 5.92 µM) | 0.12 (≈ 0.22 µM) | –
